Here are results for two molecules from paper PMC7380166, “How to Study the Metabolism of New Psychoactive Substances for the Purpose of Toxicological Screenings—A Follow-Up Study Comparing Pooled Human Liver S9, HepaRG Cells, and Zebrafish Larvae” (Frontiers in Chemistry, 2020).

The target in data set [1] is T1, hCES1b (Homo sapiens, UniProt P23141).
T1 construct: purchased Corning
T1 sequence (P23141 18-567): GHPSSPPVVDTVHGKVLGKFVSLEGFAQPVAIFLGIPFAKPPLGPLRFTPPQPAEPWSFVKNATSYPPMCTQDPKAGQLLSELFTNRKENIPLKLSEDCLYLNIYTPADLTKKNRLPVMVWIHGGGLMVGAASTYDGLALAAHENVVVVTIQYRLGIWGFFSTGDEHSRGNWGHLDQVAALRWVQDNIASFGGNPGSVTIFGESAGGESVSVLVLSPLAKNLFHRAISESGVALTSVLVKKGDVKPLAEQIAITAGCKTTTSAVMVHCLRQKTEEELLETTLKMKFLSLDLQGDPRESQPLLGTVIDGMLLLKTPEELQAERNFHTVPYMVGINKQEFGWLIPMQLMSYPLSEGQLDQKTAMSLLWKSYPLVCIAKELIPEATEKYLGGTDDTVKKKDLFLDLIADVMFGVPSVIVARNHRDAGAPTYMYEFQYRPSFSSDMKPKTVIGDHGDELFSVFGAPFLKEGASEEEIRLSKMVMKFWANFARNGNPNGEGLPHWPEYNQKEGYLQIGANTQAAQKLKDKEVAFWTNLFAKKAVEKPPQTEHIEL
The data set is described as follows: Esterases activity screening, hCES1b. On the set-up: key: +, detected; –, not detected. The note with it: 100 μM 4F-MDMB-BINACA, 0.2 mg protein/ml, duplicate. Format: in vitro ADME. The protocol: Experiments were performed in accordance with a previous study (Meyer et al., [2015]) with minor modifications. The final volume per reaction tube was 100 μl with a final 4F-MDMB-BINACA concentration of 100 μM and enzyme concentration of 0.2 mg protein/ml for hCES1b, hCES1c, and hCES2. Incubations with pHLM and pHLS9 (0.2 mg protein/ml, each) were performed in a similar manner. Additionally, incubations with human plasma (50 μl pooled human plasma, 40 μl phosphate buffer, and 10 μl substrate) were performed. The reactions were started by adding the enzyme-containing preparation and terminated with an equal volume of ice-cold acetonitrile containing diazepam-d5 (100 μM) as an internal standard. Only plasma incubations were terminated by addition of a three-fold volume of ice-cold acetonitrile. The reaction mixtures were centrifuged at 18,407 × g for 15 min, and then supernatants were transferred to autosampler vials, and 5 μl was injected onto the LC-HRMS/MS system. Negative control incubations without enzyme were prepared to identify non-metabolically formed compounds. All incubations were done in duplicate.

Data set [2] concerns monooxygenases. As to the kind of experiment: Monooxygenases activity screening, summary over isozymes. It counts as in vitro ADME, human. The following applies: single-enzyme incubations, 25 μM. Here is the method:
According to an established protocol (Wagmann et al., [2016]), the final volume per reaction tube was 50 μl with a final 4F-MDMB-BINACA concentration of 25 μM and enzyme concentrations of 50 pmol/ml for CYP1A2, CYP2A6, CYP2B6, CYP2C8, CYP2C9, CYP2C19, CYP2D6, CYP2E1, CYP3A4, and CYP3A5, respectively, or 0.25 mg protein/ml for FMO3. Furthermore, the reaction mixture contained 90 mM phosphate buffer (pH 7.4), superoxide dismutase (200 U/ml), isocitrate (5 mM), MgCl2 (5 mM), isocitrate dehydrogenase (0.5 U/ml), and NADP^+ (1.2 mM). The phosphate buffer was replaced with Tris buffer (90 mM) for incubations with CYP2A6 and CYP2C9 according to the manufacturer's recommendation. All incubations were performed at 37°C for 30 min and terminated by adding 50 μl of ice-cold acetonitrile. Afterwards, the mixtures were centrifuged at 18,407 × g for 5 min, 70 μl of the supernatants was transferred into autosampler vials, and 1 μl was injected onto the LC-HRMS/MS system. Positive control incubations were performed with pHLM (1 mg microsomal protein/ml), and negative controls without enzyme were prepared to identify non-metabolically formed compounds. All incubations were done in duplicate.

For `O=C(O)c1nn(CCCCF)c2ccccc12` [MB1], the “Detection of metabolite in incubation with hCES1b” value in data set [1] is “–”.

In the case of `COC(=O)C(NC(=O)c1nn(CCCCF)c2ccccc12)C(C)(C)C` (centres unmarked) [4F-MDMB-BINACA, methyl 2-[1-(4-fluorobutyl)-1H-indazole-3-carbonyl]amino-3,3-dimethylbutanoate], in data set [2], the “Monooxygenases involved in the metabolic phase I reactions” value was “CYP1A2, CYP2C8, CYP2C19, CYP3A4, and CYP3A5”.
